Test results as given in publication PMC12281424, “A Rac-specific competitive inhibitor of guanine nucleotide binding reduces metastasis in triple-negative breast cancer” (Cell Reports Medicine, 2025).

Experiments:
MAPK2(h) = MAPK2(h) (Homo sapiens, UniProt P28482); experiment: Kinase Profiler; format: biochemical
Procedure: (§1) The kinase profiler was performed by the company Eurofins (Discovery, Panlab and Cerep).

EGFR(T790M)(h) = EGFR(T790M)(h) (Homo sapiens, UniProt P00533, T790M); experiment: Kinase Profiler; format: biochemical
Procedure: as §1

Ret(h) = Ret(h) (Homo sapiens, UniProt P07949); experiment: Kinase Profiler; format: biochemical
Procedure: as §1

PRK1(h) = PRK1(h) (Homo sapiens, UniProt Q16512); experiment: Kinase Profiler; format: biochemical
Sequence of PRK1(h) (Q16512 whole entry): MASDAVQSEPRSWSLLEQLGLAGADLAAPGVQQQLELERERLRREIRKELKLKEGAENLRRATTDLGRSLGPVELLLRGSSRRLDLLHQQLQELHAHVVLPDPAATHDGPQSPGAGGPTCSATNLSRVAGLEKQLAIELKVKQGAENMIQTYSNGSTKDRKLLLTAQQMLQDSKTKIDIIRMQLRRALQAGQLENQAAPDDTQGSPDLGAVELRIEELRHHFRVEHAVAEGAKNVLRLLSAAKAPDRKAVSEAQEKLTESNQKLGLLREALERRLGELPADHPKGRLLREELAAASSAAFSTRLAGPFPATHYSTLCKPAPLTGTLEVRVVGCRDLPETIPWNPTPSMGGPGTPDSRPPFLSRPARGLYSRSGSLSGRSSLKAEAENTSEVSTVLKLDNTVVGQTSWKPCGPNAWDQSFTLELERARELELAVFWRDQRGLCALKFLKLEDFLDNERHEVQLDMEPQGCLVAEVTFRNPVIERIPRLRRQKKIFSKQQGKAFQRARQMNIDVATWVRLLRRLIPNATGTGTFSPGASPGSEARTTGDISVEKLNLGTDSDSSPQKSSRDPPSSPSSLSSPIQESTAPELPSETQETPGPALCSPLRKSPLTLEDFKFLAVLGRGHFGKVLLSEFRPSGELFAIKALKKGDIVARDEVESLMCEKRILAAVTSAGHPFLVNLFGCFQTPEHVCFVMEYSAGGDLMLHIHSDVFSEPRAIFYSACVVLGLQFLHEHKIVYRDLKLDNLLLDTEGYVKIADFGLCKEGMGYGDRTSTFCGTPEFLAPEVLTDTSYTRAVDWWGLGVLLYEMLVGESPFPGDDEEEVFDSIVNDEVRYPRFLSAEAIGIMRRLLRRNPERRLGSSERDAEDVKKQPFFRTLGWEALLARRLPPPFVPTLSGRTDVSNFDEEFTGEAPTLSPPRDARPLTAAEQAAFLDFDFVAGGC
Procedure: (§2) Blood cell counts, kinase profiler, safety screen, bacterial cytotoxicity, Ames, micronucleus assays were performed by the company Eurofins (France). The kinase profiler was performed by the company Eurofins (Discovery, Panlab and Cerep).

PI3K (p120g)(h) = PI3K (p120g)(h) (Homo sapiens, UniProt P48736); experiment: Kinase Profiler; format: biochemical
Sequence of PI3K (p120g)(h) (P48736 whole entry): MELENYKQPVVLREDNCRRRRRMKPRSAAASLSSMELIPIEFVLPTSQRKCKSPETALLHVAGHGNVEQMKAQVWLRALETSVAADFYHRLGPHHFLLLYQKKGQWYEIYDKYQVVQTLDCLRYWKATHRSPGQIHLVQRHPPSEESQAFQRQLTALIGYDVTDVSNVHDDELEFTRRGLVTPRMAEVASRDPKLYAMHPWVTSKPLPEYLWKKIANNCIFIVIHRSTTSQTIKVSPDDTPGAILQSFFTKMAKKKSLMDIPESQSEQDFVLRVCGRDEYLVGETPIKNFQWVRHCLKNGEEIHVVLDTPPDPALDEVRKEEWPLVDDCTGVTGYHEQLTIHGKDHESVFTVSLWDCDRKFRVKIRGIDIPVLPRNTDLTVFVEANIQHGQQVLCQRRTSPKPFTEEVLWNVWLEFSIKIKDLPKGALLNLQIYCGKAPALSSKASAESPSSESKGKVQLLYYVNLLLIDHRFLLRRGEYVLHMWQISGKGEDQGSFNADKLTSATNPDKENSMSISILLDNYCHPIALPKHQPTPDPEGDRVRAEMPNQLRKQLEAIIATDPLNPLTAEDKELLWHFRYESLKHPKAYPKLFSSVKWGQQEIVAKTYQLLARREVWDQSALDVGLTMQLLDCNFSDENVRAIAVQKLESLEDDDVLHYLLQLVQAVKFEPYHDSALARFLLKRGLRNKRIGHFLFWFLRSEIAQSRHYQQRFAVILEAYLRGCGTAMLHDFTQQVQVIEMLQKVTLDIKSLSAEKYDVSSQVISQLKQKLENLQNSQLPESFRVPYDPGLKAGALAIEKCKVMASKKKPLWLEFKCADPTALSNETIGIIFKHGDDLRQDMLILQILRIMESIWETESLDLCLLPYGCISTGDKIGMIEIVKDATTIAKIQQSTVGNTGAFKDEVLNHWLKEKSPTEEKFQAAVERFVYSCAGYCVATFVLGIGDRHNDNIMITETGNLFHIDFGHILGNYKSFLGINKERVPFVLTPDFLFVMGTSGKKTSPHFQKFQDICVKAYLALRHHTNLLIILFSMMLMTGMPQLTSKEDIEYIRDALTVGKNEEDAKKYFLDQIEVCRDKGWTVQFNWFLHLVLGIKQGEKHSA
Procedure: as §2

LATS1(h) = LATS1(h) (Homo sapiens, UniProt O95835); experiment: Kinase Profiler; format: biochemical
Procedure: as §1

LATS2(h) = LATS2(h) (Homo sapiens, UniProt Q9NRM7); experiment: Kinase Profiler; format: biochemical
Procedure: as §1

CK1(y) = experiment: Kinase Profiler; format: biochemical, yeast
Procedure: as §1

FGFR1(V561M)(h) = FGFR1(V561M)(h) (Homo sapiens, UniProt P11362, V561M); experiment: Kinase Profiler; format: biochemical
Procedure: as §1

PKCζ(h) = PKCζ(h) (Homo sapiens, UniProt Q05513); experiment: Kinase Profiler; format: biochemical
Sequence of PKCζ(h) (Q05513 whole entry): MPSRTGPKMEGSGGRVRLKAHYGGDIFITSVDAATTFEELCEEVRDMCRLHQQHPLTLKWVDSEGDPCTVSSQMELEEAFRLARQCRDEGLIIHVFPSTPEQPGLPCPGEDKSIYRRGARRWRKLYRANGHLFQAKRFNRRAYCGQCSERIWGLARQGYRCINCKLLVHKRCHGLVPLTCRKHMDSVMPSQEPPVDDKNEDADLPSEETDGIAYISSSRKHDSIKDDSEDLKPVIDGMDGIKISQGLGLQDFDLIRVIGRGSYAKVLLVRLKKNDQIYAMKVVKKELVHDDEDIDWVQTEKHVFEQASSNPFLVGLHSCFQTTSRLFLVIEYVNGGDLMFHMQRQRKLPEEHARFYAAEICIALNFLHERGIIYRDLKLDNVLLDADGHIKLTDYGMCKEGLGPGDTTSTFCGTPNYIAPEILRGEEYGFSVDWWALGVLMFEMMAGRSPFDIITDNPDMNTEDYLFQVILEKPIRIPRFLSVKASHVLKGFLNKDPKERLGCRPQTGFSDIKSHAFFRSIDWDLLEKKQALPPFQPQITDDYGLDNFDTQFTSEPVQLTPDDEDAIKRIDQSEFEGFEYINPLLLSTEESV
Procedure: as §1

MAPK1(h) = MAPK1(h) (Homo sapiens, UniProt P27361); experiment: Kinase Profiler; format: biochemical
Procedure: as §1

DRAK2(h) = DRAK2(h) (Homo sapiens, UniProt O94768); experiment: Kinase Profiler; format: biochemical
Procedure: as §2

PAK5(h) = PAK5(h) (Homo sapiens, UniProt Q9P286); experiment: Kinase Profiler; format: biochemical
Procedure: as §1

TAF1L(h) = TAF1L(h) (Homo sapiens, UniProt Q8IZX4); experiment: Kinase Profiler; format: biochemical
Procedure: as §1

PPARγ = PPARγ (Homo sapiens, UniProt P37231); experiment: Safety screen; format: binding
Procedure: as §2

Cyclooxygenase COX-1 = Cyclooxygenase COX-1 (Homo sapiens, UniProt P23219); experiment: Safety screen; format: biochemical
Sequence of Cyclooxygenase COX-1 (P23219 24-599): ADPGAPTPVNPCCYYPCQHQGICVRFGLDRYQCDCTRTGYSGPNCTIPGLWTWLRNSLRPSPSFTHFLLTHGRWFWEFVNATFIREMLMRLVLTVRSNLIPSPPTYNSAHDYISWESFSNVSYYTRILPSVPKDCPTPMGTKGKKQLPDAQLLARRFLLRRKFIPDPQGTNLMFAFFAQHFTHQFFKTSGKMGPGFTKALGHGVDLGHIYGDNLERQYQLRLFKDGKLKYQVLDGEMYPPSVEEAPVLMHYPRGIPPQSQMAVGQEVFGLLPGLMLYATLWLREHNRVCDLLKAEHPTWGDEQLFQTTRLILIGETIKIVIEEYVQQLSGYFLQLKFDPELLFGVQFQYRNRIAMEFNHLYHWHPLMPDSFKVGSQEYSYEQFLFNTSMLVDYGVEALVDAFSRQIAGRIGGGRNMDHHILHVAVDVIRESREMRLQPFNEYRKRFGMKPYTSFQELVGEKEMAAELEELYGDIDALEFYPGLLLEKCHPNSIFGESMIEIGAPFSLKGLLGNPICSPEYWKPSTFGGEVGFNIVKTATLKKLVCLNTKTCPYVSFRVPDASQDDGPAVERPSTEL
Procedure: as §2

PAK1(h) = PAK1(h) (Homo sapiens, UniProt Q13153); experiment: Kinase Profiler; format: biochemical
Sequence of PAK1(h) (Q13153 whole entry): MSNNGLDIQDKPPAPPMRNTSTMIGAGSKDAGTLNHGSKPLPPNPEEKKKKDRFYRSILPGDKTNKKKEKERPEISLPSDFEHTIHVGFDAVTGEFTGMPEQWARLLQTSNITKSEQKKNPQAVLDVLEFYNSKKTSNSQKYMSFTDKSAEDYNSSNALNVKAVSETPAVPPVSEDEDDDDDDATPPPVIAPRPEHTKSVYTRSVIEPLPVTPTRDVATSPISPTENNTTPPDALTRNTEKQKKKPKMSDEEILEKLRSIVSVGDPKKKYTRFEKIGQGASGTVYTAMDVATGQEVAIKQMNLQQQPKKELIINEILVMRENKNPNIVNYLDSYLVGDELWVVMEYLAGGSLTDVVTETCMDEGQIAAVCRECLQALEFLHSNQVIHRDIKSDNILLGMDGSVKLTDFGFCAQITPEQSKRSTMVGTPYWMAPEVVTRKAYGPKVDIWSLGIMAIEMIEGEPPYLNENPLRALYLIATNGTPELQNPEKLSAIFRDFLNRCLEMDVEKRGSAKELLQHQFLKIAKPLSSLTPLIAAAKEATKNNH
Procedure: as §2

JAK2(h) = JAK2(h) (Homo sapiens, UniProt O60674); experiment: Kinase Profiler; format: biochemical
Sequence of JAK2(h) (O60674 whole entry): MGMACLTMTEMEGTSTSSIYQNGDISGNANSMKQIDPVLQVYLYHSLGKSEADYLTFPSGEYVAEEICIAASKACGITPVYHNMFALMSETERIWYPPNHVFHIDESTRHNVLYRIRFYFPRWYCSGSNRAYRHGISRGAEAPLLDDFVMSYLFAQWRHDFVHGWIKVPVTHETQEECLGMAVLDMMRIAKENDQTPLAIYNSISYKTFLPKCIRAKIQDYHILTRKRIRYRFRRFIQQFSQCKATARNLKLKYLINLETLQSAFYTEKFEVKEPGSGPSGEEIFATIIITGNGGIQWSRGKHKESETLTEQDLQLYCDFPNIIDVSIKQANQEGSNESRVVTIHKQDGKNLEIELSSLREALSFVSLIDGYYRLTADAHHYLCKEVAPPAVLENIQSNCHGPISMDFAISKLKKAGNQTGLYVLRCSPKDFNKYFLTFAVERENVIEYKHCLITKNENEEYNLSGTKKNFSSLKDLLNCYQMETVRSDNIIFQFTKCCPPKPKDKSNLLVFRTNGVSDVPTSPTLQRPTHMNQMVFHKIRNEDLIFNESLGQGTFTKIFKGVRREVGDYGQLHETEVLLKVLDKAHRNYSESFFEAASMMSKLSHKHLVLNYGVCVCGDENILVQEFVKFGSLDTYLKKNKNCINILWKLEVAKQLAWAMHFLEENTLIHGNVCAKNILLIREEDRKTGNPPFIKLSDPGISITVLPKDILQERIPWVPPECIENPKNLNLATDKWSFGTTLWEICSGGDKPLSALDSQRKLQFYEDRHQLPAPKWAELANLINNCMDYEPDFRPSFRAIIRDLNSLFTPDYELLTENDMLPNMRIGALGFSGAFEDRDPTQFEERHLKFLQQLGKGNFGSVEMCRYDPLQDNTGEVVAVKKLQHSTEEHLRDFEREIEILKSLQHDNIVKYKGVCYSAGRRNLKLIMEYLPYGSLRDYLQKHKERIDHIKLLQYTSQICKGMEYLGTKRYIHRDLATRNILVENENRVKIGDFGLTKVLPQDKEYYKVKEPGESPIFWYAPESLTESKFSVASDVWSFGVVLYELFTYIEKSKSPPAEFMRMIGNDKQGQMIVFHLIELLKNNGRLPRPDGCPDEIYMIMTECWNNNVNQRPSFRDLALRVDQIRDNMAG
Procedure: as §1

COc1ccc(OC)c(NS(=O)(=O)c2ccc(NC(=O)CCSc3ccc(C)cc3)cc2)c1 [Compound A41]
Activity(%) (MAPK2(h)): 103%
Activity(%) (EGFR(T790M)(h)): 113%
Activity(%) (Ret(h)): 104%
Activity(%) (PRK1(h)): 93%
Activity(%) (PI3K (p120g)(h)): 104%
Activity(%) (LATS1(h)): 98%
Activity(%) (LATS2(h)): 110%
Activity(%) (CK1(y)): 98%
Activity(%) (FGFR1(V561M)(h)): 129%
Activity(%) (PKCζ(h)): 97%
Activity(%) (MAPK1(h)): 103%
Activity(%) (DRAK2(h)): 90%
Activity(%) (PAK5(h)): 105%
Activity(%) (TAF1L(h)): 110%
% inh. (PPARγ): -7%
% inh. (Cyclooxygenase COX-1): -11%
Activity(%) (PAK1(h)): 115%
Activity(%) (JAK2(h)): 114%
